System: Plasmodium falciparum
Test: GSK_TCMDC: Inhibition of Plasmodium falciparum 3D7 in whole erythrocytes, using parasite LDH activity as an index of growth.
Assay type: functional, organism-based
Settings: Plasmodium falciparum, 3D7

| Structure (SMILES) | XC50 |
| --- | --- |
| COc1ccc2nc3cc(Cl)ccc3c(NCCCCN)c2c1 | 732 nM |
| Clc1ccc(-c2nc(-c3ccncc3)c[nH]2)cc1Cl | 1060 nM |
| CCc1c(C)c2ccc3c(c2oc1=O)CN(CCc1ccc(F)cc1)CO3 | 1230 nM |
| CCOC(=O)CCCCCNC[C@H](O)c1ccccc1 | 328 nM |
| CCCNCc1ccc(-c2ccc(CN(CC3CCCO3)C(=O)C3CC(=O)c4ccccc43)cc2)nc1 (stereo not given) | 860 nM |
| COc1ccc(NC(=O)CCNc2cc(C)nc(NCc3cccc(C)c3)n2)cc1 | 1090 nM |
| CC[C@H]1CN2CC[C@H]1C[C@H]2[C@H](O)c1ccnc2ccc(C#N)cc12 | 147 nM |
| CC(C)(C)CC(C)(C)c1ccc(O)c(C(=O)Nc2ccc([N+](=O)[O-])cc2)c1 | 774 nM |
| COc1ccc(-c2ccc(NC(=O)c3cccc(Cl)c3)c(F)c2)cc1CN1CCCN(C)CC1 | 679 nM |
| Cc1sc2nc(CSc3ccccc3)nc(N3CCN(CC(=O)N4CCCC4)CC3)c2c1C | 1260 nM |
| COc1cccc(CN2CCCN(Cc3cccc(NC(=O)c4ccc(-c5ccccc5)cc4)c3)CC2)c1 | 244 nM |
| CCNc1cc(C(=O)N[C@@H](Cc2ccccc2)[C@H](O)CNC(C)(C)CCCC(C)C)cc(N2CCCCS2(=O)=O)c1 | 446 nM |
| Cc1ccc(S(=O)(=O)n2cc(-c3ccnc(N)c3)c3cc(Br)cnc32)cc1 | 896 nM |
| c1ccc(C2CCC(N3CCC(N4CCN(c5ccccc5)CC4)CC3)CC2)cc1 (stereo not given) | 764 nM |
| CS(=O)(=O)CCNCc1cccc(-c2cc3nccc(Nc4ccc(Oc5ccccc5)cc4)c3cc2Cl)c1 | 625 nM |
| COc1ccc(Nc2nccc(N3CCC(NS(=O)(=O)c4ccc(NC(C)=O)cc4)C3)n2)cc1 (stereo not given) | 795 nM |
| O=C(NC1CCCCC1)N(Cc1ccc(-c2cccc(CNC3CCCC3)c2)cc1)C1CCN(Cc2ccccc2)CC1 | 785 nM |
| CCCCCCOc1ccc(C(=O)NCCCC2CCCN(CCCCCNC(=O)C=Cc3ccc(Cl)c(Cl)c3)C2)cc1 (stereo not given) | 703 nM |
| COc1ccc2c(NN=Cc3ccc(F)cc3)ccnc2c1 | 438 nM |
| O=C(NCCN1CCCc2ccccc21)C1CCN(c2nc(-c3ccc(Cl)cc3)no2)CC1 | 695 nM |

| Structure (SMILES) | XC50 |
| --- | --- |
| Cc1cnn(-c2cccc(C(=O)NC3CCC(CCN4CCc5ccc(C#N)cc5CC4)CC3)c2)c1 (stereo not given) | 932 nM |
| CCS(=O)(=O)N1CCN(c2nc(-c3ccccc3)nc(COC)c2Cc2ccccc2F)CC1 | 1450 nM |
| CCNc1cc(C(=O)N[C@@H](Cc2ccccc2)[C@H](O)CNC(CC)c2cccc(Cl)c2)cc(N2CCCC2=O)c1 (stereo not given in full) | 31.6 nM |
| O=S(=O)(Nc1cc2c(cc1O)CCNCC2)c1ccc(-c2ccc(Cl)cc2)cc1 | 980 nM |
| N=C(N)Nc1ccc(NC(=O)Nc2ccc(NC(=N)N)cc2)cc1 | 386 nM |
| Cc1[nH]c(C)c(-c2ccc(OCc3ccc(OC(F)(F)F)cc3)nc2)c(=O)c1Br | 140 nM |
| Cn1nc(C(F)(F)F)c(-c2ccc(Br)cc2)c1NC(=O)Nc1ccc(F)cc1F | 793 nM |
| O=C(NCc1cccc(F)c1)Nc1cccc(-c2ccc(-c3nc4cc(F)ccc4[nH]3)cc2)c1 | 1050 nM |
| COc1ccc(CN(C)CCCc2ccc(NC(=O)c3cc4ccccc4[nH]3)cc2)cc1OC | 725 nM |
| Cc1cc(NC(=O)NCCN2CCC(NS(=O)(=O)c3cccc(Br)c3)C2)c2ccccc2n1 (stereo not given) | 606 nM |
| COc1ccc2nccc(N3CCC(NCCNCc4cc5c(cn4)OCCO5)C3)c2n1 (stereo not given) | 578 nM |
| Fc1ccc(NC(=S)NCCc2ccccc2)cc1 | 781 nM |
| Cc1nc(N)nc(N)c1-c1ccc(Br)c([N+](=O)[O-])c1 | 201 nM |
| C=C[C@H]1CN2CC[C@@H]1C[C@H]2[C@H](O)c1cc(-c2ccc(F)cc2)nc2ccc(OC)cc12 | 169 nM |
| COc1ccc2nccc([C@@H](O)CN3CCC(NC(=O)C(c4cc5ccccc5o4)N4CCN(c5ccccc5)CC4)CC3)c2c1 (stereo not given in full) | 238 nM |
| COc1cc2nc(N3CC(C)N(C(=O)Cc4ccc(-c5ccccc5)cc4)C(C)C3)nc(N)c2cc1OC (stereo not given) | 796 nM |
| CON(CCCN(C)C)C(=N)N | 1080 nM |
| O=C1COc2ccc3ccccc3c21 | 701 nM |
| NC1=NC2(CCCC2)C(c2ccc(Cl)c(Cl)c2)C(N)=N1 (stereo not given) | 987 nM |
| Cc1ccc(Cn2c(N3CCC(C(=O)NCc4cccs4)CC3)nc3ccccc32)cc1 | 748 nM |
